Results from paper PMC11329504, “Identification of novel small molecule-based strategies of COL7A1 upregulation and readthrough activity for the treatment of recessive dystrophic epidermolysis bullosa” (Scientific Reports, 2024).
Read-outs that look alike come from different tables or passages of the source.

Tests used:
[1] = tested on: total (truncated + full length) C7 in RDEB_L1 cells; experiment: AlphaLISA quantification of total C7 in RDEB_L1 cells; type: cell-based, human
Procedure: (§1) The AlphaLISA assay was developed in-house by using the biotin-conjugated rabbit polyclonal antibody anti-C7 (LSBio LS-298147) and conjugating the acceptor beads (PerkinElmer 6772001) to a monoclonal anti-Collagen type VII antibody produced in mouse, clone LH7.2 (Thermo MA5-13,432). Formulation of the mAb clone LH7.2 was exchanged to PBS and concentrated 5 × by using Amicon® Ultra-0.5 centrifugal filters up to 1 mg/ml. The conjugation procedure was carried out according to the protocol provided by PerkinElmer.
(§2) For compound treatment in RDEB patient-derived transformed keratinocytes, 5,000 cells were plated in 20 µL of supplemented KGM media containing 20 ng/mL TGFβ2 (SIGMA GF113) without GA-1000 in 384-well cell culture plates (Greiner 781098). The day after, 5 µL of test compounds prepared 5 × in supplemented KGM without GA-1000 were added over cells and incubated for 48 h at 37 °C and 5% CO2. For compound treatment in HEK293^R578X, 10,000 cells were plated in 20 μL of DMEM (High Glucose, 2 mM L-Glutamine, sodium pyruvate, and FBS 10%) in 384-well cell culture plates (Greiner 781,098,). The day after, 5 μL of test compounds prepared 5 × in DMEM complete medium were added over cells and incubated for 48 h at 37 °C and 5% CO2.
(§3) After the treatment process, 2.5 µL of RIPA buffer 10 x (Abcam ab156034) were added over the […] of cells for 20 min at room temperature to obtain a complete cell lysis. Then, 2 μL of sample (i.e., cell lysate with supernatant) were transferred to the AlphaLISA plate (PerkinElmer 6,059,340) containing […] of antibodies mixture ([…] of acceptor Beads-Ab and […] of biotin-rAb) prepared in AlphaLISA buffer 1 x (PerkinElmer AL00F). The reaction was incubated for 90 min at room temperature. Finally, 10 μL of […] of donor beads (PerkinElmer 6760002,) were added to the reaction under subdued light, mixed gently, and incubated for 3 h at room temperature. AlphaLISA signal was detected with an Envision microplate reader (Perkin Elmer) using the following setting: Filter: AlphaScreen, Excitation time: 180 ms, Integration time: 300 ms.
(§4) Statistical analyses were performed using GraphPad Prism v. 7.04 (La Jolla, California). Results are shown as mean ± SD of experimental replicates. Dose–response curves to assess compound treatment effect were plotted in a four-parameter logistic model. Relative EC50, representing the total drug concentration producing a 50% effect, was calculated in the four-parameter logistic equation. Comparisons of collagen protein and mRNA expression in different experimental conditions were made using ANOVA, followed by a post hoc test. statistical significance was considered with p values < 0.05.

[2] = tested on: NHK cells; experiment: Cytotoxicity, ATP levels, normal human keratinocytes (NHK); type: cell-based; details: NHK cells, ATP levels, at 40 µM
Procedure: The viability of RDEB patient-derived cell lines or NHK was evaluated by measuring the ATP levels as an indirect readout of the potential cytotoxicity effect of compounds. Cells were plated and treated exactly with the same conditions as those followed in the AlphaLISA assay, described above. To measure ATP levels, cells were processed using the ATPlite™ 1step luminescence-based assay (PerkinElmer 6,016,731), following the manufacturer’s protocol. 25 μL of ATPlite™ reagent was added directly over cells and plates were covered with a sealing film and shaken for 25 min using a microtiter plate shaker. Luminescence was measured in a Luminoskan Ascent luminometer (Thermo Fisher Scientific). 10 μM of Staurosporine was used as a reference compound and control for the total cytotoxicity.

[3] = tested on: truncated and full-length C7 in RDEB_L1, RDEB_L5 and HEK293^R578X cells; experiment: Western blot detection of truncated and full-length C7; type: cell-based, human; details: RDEB_L1, RDEB_L5 and HEK293^R578X cells
Procedure: For western blot, RDEB or normal human keratinocytes were lysed in protein extraction buffer (50 mM Tris–HCl [pH 7.5], 100 mM NaCl, 1% Nonidet P-40, and 4 mM EDTA) containing proteinase inhibitors cocktail (Complete Mini, EDTA free; Roche Diagnostics, Mannheim, Germany). Lysates were incubated for 30 min on ice and centrifuged at 15,000 g for 30 min at 4 °C. Supernatants were then collected and concentrated by ultrafiltration using Amicon Ultra columns (10 kDa; Millipore, Ireland). Protein concentrations were measured using the Bradford assay (Bio-Rad, Hercules, CA). For each sample, […] total protein was resolved on NuPAGE Novex 3%–8% Tris–Acetate gel electrophoresis (Invitrogen, Carlsbad, CA) and electrotransferred to nitrocellulose membranes (Invitrogen, Carlsbad, CA). For type VII collagen analysis, blots were probed with a monospecific polyclonal anti-C7 antibody (a generous gift from Dr. A. Nystrom, University of Freiburg). Invitrogen anti-MDH1 polyclonal antibody (PA550446, 1:1000) was used to detect MDH1. Standard antibodies against a reference protein were used as a loading control, as indicated. Visualization of the resulting signal was performed by incubating with horseradish peroxidase (HRP)- conjugated anti-rabbit antibody (Amersham, Burlington, MA) and West Pico Chemiluminescent Substrate (Pierce, Rockford, IL).

[4] = tested on: total C7 in HEK293^R578X cells; experiment: AlphaLISA quantification of total C7 in recombinant HEK293^R578X cells; type: cell-based, human
Procedure: as §1, §2, §3, §4

[5] = tested on: total (truncated + full length) C7 in RDEB_L5 cells; experiment: AlphaLISA quantification of total C7 in RDEB_L5 cells; type: cell-based, human
Procedure: as §1, §2, §3, §4

CN[C@@H]1[C@@H](O)[C@@H](O[C@@H]2[C@@H](O)[C@H](O[C@H]3O[C@H]([C@@H](C)O)[C@@H](O)[C@H](O)[C@H]3N)[C@@H](N)C[C@H]2N)OC[C@]1(C)O [Compound G418, G418, reference compound]
Increase in C7 levels Emax, % vs baseline ([1]; RDEB_L1 cells, at 20 µM, 20 ng/mL TGFß2): 124 ± 76 at 20 % vs baseline
EC50 ([1]; RDEB_L1 cells, read-out: EC50 in the AlphaLISA assay): 4.9 µM
EC50 ([1]; in RDEB_L1 and RDEB_L5 cells, read-out: EC50 (range over two cell lines)): 4.9 to 12 µM
Cytotox. % inhibition of viability [2]: 30.8% ± 3.4 at 40 (n=4)
C7 products induced, western blot [3]: detectable upregulation of full length and truncated C7
Increase in C7 levels Emax, % vs baseline ([4]; at 40 µM): 71 ± 6 at 40 % vs baseline
EC50 ([4]; total C7 AlphaLISA, 48 h, relative EC50, mean ± SD, read-out: Increase in C7 levels EC50): 16 ± 0.09 µM
Increase in C7 levels Emax, % vs baseline ([5]; at 25 µM, 20 ng/mL TGFß2): 35.5 at 25 % vs baseline
EC50 ([5]; total C7 AlphaLISA, 48 h, 20 ng/mL TGFß2, relative EC50, mean ± SD, read-out: Increase in C7 levels EC50): 12 µM
